Data published in patent publication US20230263822A1, “MODULATION OF FACTOR 11 EXPRESSION” (Ionis Pharmaceuticals, Inc., priority 2008, published 2023).

Assay: Hematology assays in cynomolgus monkeys (Example 45)
Assay type: in vivo
Conditions: for MCH / MCHC / MCV / RBC count / WBC count / hematocrit / hemoglobin: escalating dose regimen
Protocol: Groups, each consisting of two male and three female monkeys, were injected subcutaneously with ISIS 416838, ISIS 416850, ISIS 416858, ISIS 416864, or ISIS 417002 in escalating doses. Antisense oligonucleotide was administered to the monkeys at 5 mg/kg three times per a week for week 1; 5 mg/kg twice per week for weeks 2 and 3; 10 mg/kg three times per week for week 4; 10 mg/kg twice per week for weeks 5 and 6; 25 mg/kg three times per week for week 7; and 25 mg/kg twice per week for weeks 8, 9, 10, 11, and 12. One control group, consisting of two male and three female monkeys, was injected subcutaneously with PBS according to the same dosing regimen. An additional experimental group, consisting of two male and three female monkeys, was injected subcutaneously with ISIS 416850 in a chronic, lower dose regimen. Antisense oligonucleotide was administered to the monkeys at 5 mg/kg three times per week for week 1; 5 mg/kg twice per week for week 2 and 3; 10 mg/kg three times per week for week 4; and 10 mg/kg twice per week for weeks 5 to 12. Body weights were measured weekly. Blood samples were collected 14 days and 5 days before the start of treatment and subsequently once per week for Factor 11 protein activity analysis in plasma, fibrinogen measurement, PT and aPTT measurements, bleeding times, and measurement of various hematologic factors. On day 85, the monkeys were euthanized by exsanguination while under deep anesthesia, and organs harvested for further analysis.
The ISIS oligonucleotide, ISIS 416850, given with the chronic dose regimen is distinguished from the other oligonucleotides with an asterisk (*).

ISIS 416858: MOE gapmer, nucleobases 1275 to 1318 of SEQ ID NO: 1 (Table 8) (antisense ACGGCATTGGTGCACAGTTT; MOE gapmer, wing and gap sizes not given here)
MCH (Day 64): 22 pg | MCH (Day 71): 22 pg | MCH (Day 78): 23 pg | MCH (Day 85): 22 pg | basophils (day 8): 0.3% | eosinophils (day 8): 0.3% | lymphocytes (day 8): 45% | monocytes (day 8): 2.7% | neutrophils (day 8): 51% | platelet count (day 8): 391000 µL⁻¹ | reticulocytes (day 8): 1.2% | MCH (day 8): 23 pg | MCHC (day 8): 30 g/dL | MCV (day 8): 77 fL | RBC count (day 8): 5.6e+06 µL⁻¹ | WBC count (day 8): 12000 µL⁻¹ | hematocrit (day 8): 43% | hemoglobin (day 8): 12.8 g/dL | basophils (day 15): 0.2% | eosinophils (day 15): 0.3% | lymphocytes (day 15): 43% | monocytes (day 15): 2.2% | neutrophils (day 15): 54% | platelet count (day 15): 400000 µL⁻¹ | reticulocytes (day 15): 1.6% | MCH (day 15): 23 pg | MCHC (day 15): 31 g/dL | MCV (day 15): 74 fL | RBC count (day 15): 5.4e+06 µL⁻¹ | WBC count (day 15): 11000 µL⁻¹ | hematocrit (day 15): 40% | hemoglobin (day 15): 12.6 g/dL | basophils (day 22): 0.2% | eosinophils (day 22): 0.6% | lymphocytes (day 22): 49% | monocytes (day 22): 2.8% | neutrophils (day 22): 47% | platelet count (day 22): 316000 µL⁻¹ | reticulocytes (day 22): 1.3% | MCH (day 22): 24 pg | MCHC (day 22): 30 g/dL | MCV (day 22): 77 fL | RBC count (day 22): 5.3e+06 µL⁻¹ | WBC count (day 22): 11000 µL⁻¹ | hematocrit (day 22): 41% | hemoglobin (day 22): 12.4 g/dL | basophils (day 29): 0.2% | eosinophils (day 29): 0.6% | lymphocytes (day 29): 51% | monocytes (day 29): 3.8% | neutrophils (day 29): 43% | platelet count (day 29): 336000 µL⁻¹ | reticulocytes (day 29): 1.5% | MCH (day 29): 23 pg | MCHC (day 29): 30 g/dL | MCV (day 29): 78 fL | RBC count (day 29): 5.3e+06 µL⁻¹ | WBC count (day 29): 12000 µL⁻¹ | hematocrit (day 29): 41% | hemoglobin (day 29): 12.3 g/dL | basophils (day 36): 0.3% | eosinophils (day 36): 0.4% | lymphocytes (day 36): 49% | monocytes (day 36): 2.9% | neutrophils (day 36): 47% | platelet count (day 36): 371000 µL⁻¹ | reticulocytes (day 36): 1.6% | MCH (day 36): 23 pg | MCHC (day 36): 31 g/dL | MCV (day 36): 75 fL | RBC count (day 36): 5.5e+06 µL⁻¹ | WBC count (day 36): 12000 µL⁻¹ | hematocrit (day 36): 40% | hemoglobin (day 36): 12.6 g/dL | basophils (day 43): 0.3% | eosinophils (day 43): 0.3% | lymphocytes (day 43): 51% | monocytes (day 43): 3.1% | neutrophils (day 43): 45% | platelet count (day 43): 342000 µL⁻¹ | reticulocytes (day 43): 1.3% | MCH (day 43): 23 pg | MCHC (day 43): 31 g/dL | MCV (day 43): 74 fL | RBC count (day 43): 5.5e+06 µL⁻¹ | WBC count (day 43): 11000 µL⁻¹ | hematocrit (day 43): 40% | hemoglobin (day 43): 12.4 g/dL | basophils (day 50): 0.4% | eosinophils (day 50): 0.4% | lymphocytes (day 50): 48% | monocytes (day 50): 4.6% | neutrophils (day 50): 46% | platelet count (day 50): 331000 µL⁻¹ | reticulocytes (day 50): 1.5% | MCH (day 50): 23 pg | MCHC (day 50): 30 g/dL | MCV (day 50): 76 fL | RBC count (day 50): 5.5e+06 µL⁻¹ | WBC count (day 50): 13000 µL⁻¹ | hematocrit (day 50): 41% | hemoglobin (day 50): 12.2 g/dL | basophils (day 57): 0.2% | eosinophils (day 57): 0.3% | lymphocytes (day 57): 51% | monocytes (day 57): 3.8% | neutrophils (day 57): 44% | platelet count (day 57): 333000 µL⁻¹ | reticulocytes (day 57): 1.4% | MCH (day 57): 22 pg | MCHC (day 57): 31 g/dL | MCV (day 57): 74 fL | RBC count (day 57): 5.6e+06 µL⁻¹ | WBC count (day 57): 13000 µL⁻¹ | hematocrit (day 57): 41% | hemoglobin (day 57): 12.7 g/dL | basophils (day 64): 0.4% | eosinophils (day 64): 0.4% | lymphocytes (day 64): 56% | monocytes (day 64): 4.4% | neutrophils (day 64): 37% | platelet count (day 64): 295000 µL⁻¹ | reticulocytes (day 64): 1.0% | MCHC (day 64): 30 g/dL | MCV (day 64): 73 fL | RBC count (day 64): 5.7e+06 µL⁻¹ | WBC count (day 64): 12000 µL⁻¹ | hematocrit (day 64): 42% | hemoglobin (day 64): 12.8 g/dL | basophils (day 71): 0.4% | eosinophils (day 71): 0.9% | lymphocytes (day 71): 66% | monocytes (day 71): 4.9% | neutrophils (day 71): 26% | platelet count (day 71): 286000 µL⁻¹ | reticulocytes (day 71): 1.3% | MCHC (day 71): 30 g/dL | MCV (day 71): 75 fL | RBC count (day 71): 5.6e+06 µL⁻¹ | WBC count (day 71): 13000 µL⁻¹ | hematocrit (day 71): 42% | hemoglobin (day 71): 12.7 g/dL | basophils (day 78): 0.4% | eosinophils (day 78): 0.5% | lymphocytes (day 78): 54% | monocytes (day 78): 4.9% | neutrophils (day 78): 39% | platelet count (day 78): 262000 µL⁻¹ | reticulocytes (day 78): 1.2% | MCHC (day 78): 32 g/dL | MCV (day 78): 72 fL | RBC count (day 78): 5.4e+06 µL⁻¹ | WBC count (day 78): 11000 µL⁻¹ | hematocrit (day 78): 39% | hemoglobin (day 78): 12.4 g/dL | basophils (day 85): 0.3% | eosinophils (day 85): 0.6% | lymphocytes (day 85): 52% | monocytes (day 85): 6.1% | neutrophils (day 85): 40% | platelet count (day 85): 267000 µL⁻¹ | reticulocytes (day 85): 1.3% | MCHC (day 85): 31 g/dL | MCV (day 85): 72 fL | RBC count (day 85): 5.5e+06 µL⁻¹ | WBC count (day 85): 11000 µL⁻¹ | hematocrit (day 85): 39% | hemoglobin (day 85): 11.9 g/dL | basophils (day −5): 0.3% | eosinophils (day −5): 1.3% | lymphocytes (day −5): 49% | monocytes (day −5): 2.8% | neutrophils (day −5): 46% | platelet count (day −5): 463000 µL⁻¹ | reticulocytes (day −5): 0.9% | MCH (day −5): 23 pg | MCHC (day −5): 31 g/dL | MCV (day −5): 75 fL | RBC count (day −5): 5.6e+06 µL⁻¹ | WBC count (day −5): 14000 µL⁻¹ | hematocrit (day −5): 42% | hemoglobin (day −5): 13.2 g/dL | basophils (day −14): 0.3% | eosinophils (day −14): 0.7% | lymphocytes (day −14): 58% | monocytes (day −14): 2.8% | neutrophils (day −14): 37% | platelet count (day −14): 419000 µL⁻¹ | reticulocytes (day −14): 1.0% | MCH (day −14): 24 pg | MCHC (day −14): 31 g/dL | MCV (day −14): 77 fL | RBC count (day −14): 5.6e+06 µL⁻¹ | WBC count (day −14): 14000 µL⁻¹ | hematocrit (day −14): 43% | hemoglobin (day −14): 13.2 g/dL
